Source: US12162861B2, “Dopamine D3 receptor selective antagonists/partial agonists; method of making; and use thereof” (THE UNITED STATES OF AMERICA, AS REPRESENTED BY THE …, priority 2016, dated 2024)

Key:
[1] = Sucrose self-administration; type: in vivo; conditions: pretreatment (±)-29 15 and 25 mg/kg, (±)-19 1 and 5 mg/kg
[2] = target: T1, human D2R (Homo sapiens, UniProt P14416); test: Radioligand competition binding, [3H]N-methylspiperone, D2R; conditions: Table 1A; ratio of Ki values
T1 construct: expressed in transfected cells; host or cells: HEK293
Method: Binding at dopamine D2-like receptors was determined using previously described methods. (Chen et al. “Tranylcypromine substituted cis-hydroxycyclobutylnaphthamides as potent and selective dopamine D(3) receptor antagonists.” J. Med. Chem. 2014, 57, 4962-4968) Membranes were prepared from HEK293 cells expressing human D2R, D3R or D4R, grown in a 50:50 mix of DMEM and Ham's F12 culture media, supplemented with 20 mM HEPES, 2 mM L-glutamine, 0.1 mM non-essential amino acids, 1× antibiotic/antimycotic, 10% heat-inactivated fetal bovine serum, and 200 μg/mL hygromycin (Life Technologies, Grand Island, NY) and kept in an incubator at 37° C. and 5% CO2. Upon reaching 80-90% confluence, cells were harvested using pre-mixed Earle's Balanced Salt Solution (EBSS) with 5 μM EDTA (Life Technologies) and centrifuged at 3000 rpm for 10 min at 21° C. The supernatant was removed and the pellet was resuspended in 10 mL hypotonic lysis buffer (5 mM MgCl2·6H2O, 5 mM Tris, pH 7.4 at 4° C.) and centrifuged at 20,000 rpm for 30 min at 4° C. The pellet was then resuspended in fresh EBSS buffer made from 8.7 g/L Earle's Balanced Salts without phenol red (US Biological, Salem, MA), 2.2 g/L sodium bicarbonate, pH to 7.4. A Bradford protein assay (Bio-Rad, Hercules, CA) was used to determine the protein concentration and membranes were diluted to 500 μg/mL and stored in a −80° C. freezer for later use.
(§1) Radioligand competition binding experiments were conducted using thawed membranes. Test compounds were freshly dissolved in 30% DMSO and 70% H2O to a stock concentration of 100 μM. To assist the solubilization of free-base compounds, 10 μl of glacial acetic acid was added along with the DMSO. Each test compound was then diluted into 13 half-log serial dilutions using 30% DMSO vehicle; final test concentrations ranged from 10 μM to 10 pM. Previously frozen membranes were diluted in fresh EBSS to a 100 μg/mL (for hD2R or hD3R) or 200 μg/mL (hD4R) stock for binding. Radioligand competition experiments were conducted in glass tubes containing 300 μl fresh EBSS buffer with 0.2 mM sodium metabisulfite, 50 μl of diluted test compound, 100 μl of membranes (10 μg total protein for hD2R or hD3R, 20 μg total protein for hD4R), and 50 μl of [^3H]N-methylspiperone (0.4 nM final concentration; Perkin Elmer). Nonspecific binding was determined using 10 μM butaclamol (Sigma-Aldrich, St. Louis, MO) and total binding was determined with 30% DMSO vehicle. All compound dilutions were tested in triplicate and the reaction incubated for one hour at room temperature. The reaction was terminated by filtration through Whatman GF/B filters, presoaked for one hour in 0.5% polyethylenimine, using a Brandel R48 filtering manifold (Brandel Instruments, Gaithersburg, MD). The filters were washed 3 times with 3 mL of ice cold EBSS buffer and transferred to scintillation vials. 3 mL CytoScint liquid scintillation cocktail (MP Biomedicals, Solon, OH) was added and vials were counted using a Perkin Elmer Tri-Carb 2910 TR liquid scintillation counter (Waltham, MA). IC50 values for each compound were determined from dose-response curves and Ki values were calculated using the Cheng-Prusoff equation; these analyses were performed using GraphPad Prism version 5.00 for Windows (GraphPad Software, San Diego, CA). Reported Ki values were determined from least three independent experiments.

[3] = target: T2, human D3R (Homo sapiens, UniProt P35462); test: Radioligand competition binding, [3H]N-methylspiperone, D3R; conditions: Table 1A; for D4/D3: ratio of Ki values; for D3R K ± SEM (nM): HEK 293 cells transfected with hD3R, [3H]N-methylspiperone
T2 construct: expressed in transfected cells; host or cells: HEK293
Method: Binding at dopamine D2-like receptors was determined using previously described methods. […] Upon reaching 80-90% confluence, cells were harvested using pre-mixed Earle's Balanced Salt Solution (EBSS) with 5 μM EDTA (Life Technologies) and centrifuged at 3000 rpm for 10 min at 21° C. The supernatant was removed and the pellet was resuspended in 10 mL hypotonic lysis buffer (5 mM MgCl2·6H2O, 5 mM Tris, pH 7.4 at 4° C.) and centrifuged at 20,000 rpm for 30 min at 4° C. The pellet was then resuspended in fresh EBSS buffer made from 8.7 g/L Earle's Balanced Salts without phenol red (US Biological, Salem, MA), 2.2 g/L sodium bicarbonate, pH to 7.4. A Bradford protein assay (Bio-Rad, Hercules, CA) was used to determine the protein concentration and membranes were diluted to 500 μg/mL and stored in a −80° C. freezer for later use.
as §1, with “3 mL CytoScint liquid scintillation cocktail (MP Biomedicals, Solon, OH) was added and vials were counted using a Perkin Elmer Tri-Carb 2910 TR liquid scintillation counter (Waltham, MA).” left out

[4] = target: T3, human dopamine D3R (Homo sapiens, UniProt P35462); test: D3R mitogenesis assay in CHO cells; type: cell-based; conditions: stimulation of mitogenesis, CHO cells with human D3R; read-out: Agonist EC50 ± SEM
T3 construct: expressed in transfected cells; host or cells: CHO
T3 sequence (P35462 whole entry): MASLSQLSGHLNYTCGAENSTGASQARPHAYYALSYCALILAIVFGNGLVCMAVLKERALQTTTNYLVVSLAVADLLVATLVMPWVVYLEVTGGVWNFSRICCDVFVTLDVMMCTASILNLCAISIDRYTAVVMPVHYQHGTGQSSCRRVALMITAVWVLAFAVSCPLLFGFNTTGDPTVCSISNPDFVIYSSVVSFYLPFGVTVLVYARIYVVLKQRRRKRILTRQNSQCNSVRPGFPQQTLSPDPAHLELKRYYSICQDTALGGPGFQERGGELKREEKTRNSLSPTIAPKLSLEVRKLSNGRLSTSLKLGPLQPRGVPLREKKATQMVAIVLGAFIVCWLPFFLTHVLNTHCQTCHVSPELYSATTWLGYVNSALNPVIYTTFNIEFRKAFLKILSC

T1 sequence (P14416 whole entry): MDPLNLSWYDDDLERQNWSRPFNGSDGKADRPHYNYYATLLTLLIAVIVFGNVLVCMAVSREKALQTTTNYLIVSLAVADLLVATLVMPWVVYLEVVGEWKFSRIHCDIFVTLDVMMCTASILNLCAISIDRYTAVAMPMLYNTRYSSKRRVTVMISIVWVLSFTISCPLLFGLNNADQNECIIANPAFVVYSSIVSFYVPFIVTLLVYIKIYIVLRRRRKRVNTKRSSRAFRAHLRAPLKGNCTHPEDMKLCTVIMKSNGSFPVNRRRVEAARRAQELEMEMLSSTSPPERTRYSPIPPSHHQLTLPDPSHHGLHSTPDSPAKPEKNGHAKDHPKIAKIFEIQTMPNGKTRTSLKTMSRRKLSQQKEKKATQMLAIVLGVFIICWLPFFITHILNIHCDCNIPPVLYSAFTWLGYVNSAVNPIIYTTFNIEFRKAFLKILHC
T2 sequence (P35462 whole entry): as the sequence (P35462 whole entry) above

| SMILES | sucrose self-administration [1] | D4/D2 [2] | D4/D3 [3] | D3R K ± SEM (nM) [3] | EC50 [4] [µM] |
| --- | --- | --- | --- | --- | --- |
| CCc1cccc(N2CCN(CC(O)CCNC(=O)c3cc4ccccc4[nH]3)CC2)c1Cl (racemic) [Compound 19, N-(4-(4-(2-chloro-3-ethylphenyl)piperazin-1-yl)-3-hydroxybutyl)-1H-indole-2-carboxamide] | no significant effects on sucrose self-administration | – | – | – | – |
| CCc1cccc(N2CCN(CCCCNC(=O)c3cc4ccccc4[nH]3)CC2)c1Cl [Compound 18, N-(4-(4-(2-Chloro-3-ethylphenyl)piperazin-1-yl)butyl)-1H-indole-2-carboxamide] | – | 61 | 2352 | – | – |
| CCc1cccc(N2CCN(CCCCNC(=O)c3cc4ccccc4o3)CC2)c1Cl [Compound 20, N-(4-(4-(2-Chloro-3-ethylphenyl)piperazin-1-yl)butyl)benzofuran-2-carboxamide] | – | 56 | 2327 | subnanomolar binding affinities | – |
| CCc1cccc(N2CCN(CC(O)CCNC(=O)c3cc4ccccc4o3)CC2)c1Cl (stereo not drawn) [Compound 21, N-(4-(4-(2-Chloro-3-ethylphenyl)piperazin-1-yl)-3-hydroxybutyl)benzofuran-2-carboxamide] | – | 15 | 2417 | subnanomolar binding affinities | – |
| CCc1cccc(N2CCN(CCCCNC(=O)c3cn4ccccc4n3)CC2)c1Cl [Compound 22, N-(4-(4-(2-chloro-3-ethylphenyl)piperazin-1-yl)butyl)imidazo[1,2-a]pyridine-2-carboxamide] | – | 145.2 | 2482 | – | – |
| CCc1cccc(N2CCN(CC(O)CCNC(=O)c3cn4ccccc4n3)CC2)c1Cl (stereo not drawn) [Compound 23, N-(4-(4-(2-Chloro-3-ethylphenyl)piperazin-1-yl)-3-hydroxybutyl)imidazo[1,2-a]pyridine-2-carboxamide] | – | 58.5 | 2671 | – | – |
| CCc1cccc(N2CCN(CCCCNC(=O)c3c(C)nc4sccn34)CC2)c1Cl [Compound 24, N-(4-(4-(2-chloro-3-ethylphenyl)piperazin-1-yl)butyl)-6-methylimidazo[2,1-b]thiazole-5-carboxamide] | – | 30.8 | 152 | – | – |
| CCc1c[nH]c(C(=O)NCCCCN2CCN(c3cccc(CC)c3Cl)CC2)n1 [Compound 25, N-(4-(4-(2-Chloro-3-ethylphenyl)piperazin-1-yl)butyl)-4-ethyl-1H-imidazole-2-carboxamide] | – | 40.0 | 439 | – | – |
| CCc1cccc(N2CCN(CCCCNC(=O)c3nc(C)c[nH]3)CC2)c1Cl [Compound 26, N-(4-(4-(2-Chloro-3-ethylphenyl)piperazin-1-yl)butyl)-4-methyl-1H-imidazole-2-carboxamide] | – | 43.4 | 853 | – | – |
| CCc1cccc(N2CCN(CC(O)CCNC(=O)c3nc(C)c[nH]3)CC2)c1Cl (stereo not drawn) [Compound 27, N-(4-(4-(2-Chloro-3-ethylphenyl)piperazin-1-yl)-3-hydroxybutyl)-4-methyl-1H-imidazole-2-carboxamide] | – | 13.1 | 175 | – | – |
| CCc1cc(Cl)c(OC)c(N2CCN(CCCCNC(=O)c3cc4ccccc4[nH]3)CC2)c1 [Compound 28, N-(4-(4-(3-Chloro-5-ethyl-2-methoxyphenyl)piperazin-1-yl)butyl)-1H-indole-2-carboxamide] | – | 38 | 3065 | – | > 8.3 |
| CCc1cc(Cl)c(OC)c(N2CCN(CCCCNC(=O)c3cc4ccccc4o3)CC2)c1 [Compound 30, N-(4-(4-(3-Chloro-5-ethyl-2-methoxyphenyl)piperazin-1-yl)butyl)benzofuran-2-carboxamide] | – | 5.2 | 224 | – | > 6.6 |
| CCc1cc(Cl)c(OC)c(N2CCN(CC(O)CCNC(=O)c3cc4ccccc4o3)CC2)c1 (stereo not drawn) [Compound 31, N-(4-(4-(3-Chloro-5-ethyl-2-methoxyphenyl)piperazin-1-yl)-3-hydroxybutyl)benzofuran-2-carboxamide] | – | 3.3 | 146 | – | – |
| CCc1cccc(N2CCN(C/C=C/CNC(=O)c3nc(C)c[nH]3)CC2)c1Cl [Compound 35, (E)-N-(4-(4-(2-Chloro-3-ethylphenyl)piperazin-1-yl)but-2-en-1-yl)-4-methyl-1H-imidazole-2-carboxamide] | – | 31.2 | 393 | – | – |
| CCc1cccc(N2CCN(CCC(O)CNC(=O)c3cc4ccccc4[nH]3)CC2)c1Cl (stereo not drawn) [Compound 40, N-(4-(4-(2-Chloro-3-ethylphenyl)piperazin-1-yl)-2-hydroxybutyl)-1H-indole-2-carboxamide] | – | 44.7 | 1525 | – | – |
